The text below walks through data of PubChem BioAssay AID200 (DTP/NCI, 2004).

This assay deals with B6C3F1 mice, B16 melanoma ip, median survival T/C. The assay can be described thus: NCI In Vivo Anticancer Drug Screen. Data for tumor model B16 Melanoma (intraperitoneal) in B6C3F1 mice. The following applies: endpoint: median survival time, higher = longer survival. Summed up: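 Mice bearing transplanted tumor were dosed with compound or vehicle, and survival was recorded. Activity is expressed as the treated-group measurement (T) divided by the vehicle control measurement (C).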

[1] abbreviates: dose: 6.25 mg/kg/injection, schedule: Q01DX009 (ip), vehicle: saline with Tween-80.
Setting [2] is: dose: 12.5 mg/kg/injection, schedule: Q01DX009 (ip), vehicle: saline with Tween-80.
[3] abbreviates: dose: 50.0 mg/kg/injection, schedule: Q01DX009 (ip), vehicle: saline with Tween-80.
Where [4] appears, read: dose: 100.0 mg/kg/injection, schedule: Q01DX009 (ip), vehicle: saline with Tween-80.
The mark [5] stands for this setting: dose: 200.0 mg/kg/injection, schedule: Q01DX009 (ip), vehicle: saline with Tween-80.
[6] abbreviates: dose: 12.5 mg/kg/injection, schedule: Q01DX009 (ip), vehicle: saline.
The mark [7] stands for this setting: dose: 25.0 mg/kg/injection, schedule: Q01DX009 (ip), vehicle: saline.
Setting [8] is: dose: 50.0 mg/kg/injection, schedule: Q01DX009 (ip), vehicle: water.
[9] abbreviates: dose: 100.0 mg/kg/injection, schedule: Q01DX009 (ip), vehicle: water.
Setting [10] is: dose: 200.0 mg/kg/injection, schedule: Q01DX009 (ip), vehicle: water.
[11] abbreviates: dose: 400.0 mg/kg/injection, schedule: Q01DX009 (ip), vehicle: water.
Where [12] appears, read: dose: 50.0 mg/kg/injection, schedule: Q01DX009 (ip), vehicle: saline.

Several values for one entry are separate records, joined by “and”; a condition that tells them apart may be missing. Equal values may be shown once. Toxic doses and inconclusive results are not listed.

Consider `CCCNC1=C(C)C(=O)C2=C(C1=O)[C@H](COC(N)=O)[C@]1(OC)[C@@H]3N[C@@H]3CN21`, for which the T/C is, setting by setting: (dose: 0.39 mg/kg/injection, schedule: Q01DX009 (ip), vehicle: Klucel (hydroxypropylcellulose) (HPC)) 104 % of control; (dose: 0.39 mg/kg/injection, schedule: Q01DX009 (ip), vehicle: saline) 115 % of control; (dose: 0.78 mg/kg/injection, schedule: Q01DX009 (ip), vehicle: Klucel (hydroxypropylcellulose) (HPC)) 105 % of control; (dose: 1.56 mg/kg/injection, schedule: Q01DX009 (ip), vehicle: Klucel (hydroxypropylcellulose) (HPC)) 105 % of control; (dose: 1.56 mg/kg/injection, schedule: Q01DX009 (ip), vehicle: saline) 155 % of control; (dose: 3.12 mg/kg/injection, schedule: Q01DX009 (ip), vehicle: Klucel (hydroxypropylcellulose) (HPC)) 96 % of control. In addition, the T/C is, setting by setting: (dose: 3.12 mg/kg/injection, schedule: Q01DX009 (ip), vehicle: saline) 173 % of control; (dose: 6.25 mg/kg/injection, schedule: Q01DX009 (ip), vehicle: Klucel (hydroxypropylcellulose) (HPC)) 111 % of control.

In the case of `CC(C)N1C(=O)C=C(c2ccc([N+](=O)[O-])cc2)C1=O`, the T/C is, setting by setting: (dose: 3.12 mg/kg/injection, schedule: Q01DX009 (ip), vehicle: saline with Tween-80) 104 % of control; under setting [1], 111 % of control; under setting [2], 105 % of control; (dose: 25.0 mg/kg/injection, schedule: Q01DX009 (ip), vehicle: saline with Tween-80) 105 % of control.

For `O=C(CCl)NC(Cc1ccccc1)C(=O)O` (configuration not stated), the T/C runs as follows: under setting [3], 88 % of control; under setting [4], 90 % of control; under setting [5], 90 % of control.

`Nc1ncnc2c1ncn2C1OCC(O)C1O` (configuration not stated): the T/C reads like this: under setting [6], 118 % of control; under setting [7], 121 % of control; (dose: 100.0 mg/kg/injection, schedule: Q01DX009 (ip), vehicle: suspension in saline) 124 % of control.

Take `Cc1ccccc1N=C(c1ccccc1)C1C(=O)c2ccccc2C1=O`: the T/C is 101 % of control (dose: 50.0 mg/kg/injection, schedule: Q01DX009 (ip), vehicle: DMSO); 106 % of control (dose: 100.0 mg/kg/injection, schedule: Q01DX009 (ip), vehicle: DMSO); 116 % of control (dose: 200.0 mg/kg/injection, schedule: Q01DX009 (ip), vehicle: DMSO); 108 % of control (dose: 400.0 mg/kg/injection, schedule: Q01DX009 (ip), vehicle: DMSO); 101 % of control (dose: 800.0 mg/kg/injection, schedule: Q01DX009 (ip), vehicle: DMSO).

For the compound `Nc1nc(-c2cccc(S(=O)(=O)O)c2)c(Br)c(=O)[nH]1`, the T/C is, setting by setting: under setting [4], 118 % of control; under setting [5], 122 % of control.

Take `Oc1ccc(OCc2ccccc2)cc1`: the T/C (dose: 12.5 mg/kg/injection, schedule: Q01DX009 (ip), vehicle: Klucel (hydroxypropylcellulose) (HPC)) was 107 % of control and 100 % of control; the T/C (dose: 25.0 mg/kg/injection, schedule: Q01DX009 (ip), vehicle: Klucel (hydroxypropylcellulose) (HPC)) was 91 % of control and 102 % of control; the T/C (dose: 50.0 mg/kg/injection, schedule: Q01DX009 (ip), vehicle: Klucel (hydroxypropylcellulose) (HPC)) was 90 % of control and 96 % of control; the T/C (dose: 100.0 mg/kg/injection, schedule: Q01DX009 (ip), vehicle: Klucel (hydroxypropylcellulose) (HPC)) was 100 % of control and 107 % of control; the T/C (dose: 200.0 mg/kg/injection, schedule: Q01DX009 (ip), vehicle: Klucel (hydroxypropylcellulose) (HPC)) was 98 % of control [middle of 4 runs]; the T/C (dose: 400.0 mg/kg/injection, schedule: Q01DX009 (ip), vehicle: Klucel (hydroxypropylcellulose) (HPC)) was 102 % of control and 94 % of control.

Take `COc1ccc(S(=O)(=O)N/N=C/C(=O)O)cc1`: the T/C is 101 % of control and 104 % of control under setting [1]; 116 % of control and 120 % of control under setting [2]; 119 % of control under setting [3].

In the case of `CS(C)(O)NC(N)=O`, the T/C is 105 % of control under setting [8], 103 % of control under setting [9], 100 % of control under setting [10] and 105 % of control under setting [11].

As to `O=P1(N(CCCl)CCCl)NCCCO1` (configuration not stated), the T/C under setting [6] was 121 % of control; the T/C (dose: 18.75 mg/kg/injection, schedule: Q01DX005 (ip), vehicle: saline) was 104 % of control; the T/C (dose: 18.75 mg/kg/injection, schedule: Q01DX005 (iv), vehicle: saline) was 111 % of control; the T/C (dose: 25.0 mg/kg/injection, schedule: Q01DX001 (ip), vehicle: saline) was 108 % of control and 103 % of control; the T/C (dose: 37.5 mg/kg/injection, schedule: Q01DX001 (ip), vehicle: saline) was 106 % of control; the T/C (dose: 37.5 mg/kg/injection, schedule: Q01DX001 (iv), vehicle: saline) was 104 % of control. Moreover, the T/C by setting is: (dose: 37.5 mg/kg/injection, schedule: Q01DX005 (ip), vehicle: saline) 121 % of control; (dose: 50.0 mg/kg/injection, schedule: Q01DX001 (ip), vehicle: saline) 111 % of control and 103 % of control; under setting [12], 154 % of control; (dose: 75.0 mg/kg/injection, schedule: Q01DX001 (ip), vehicle: saline) 116 % of control; (dose: 75.0 mg/kg/injection, schedule: Q01DX001 (iv), vehicle: saline) 114 % of control; (dose: 75.0 mg/kg/injection, schedule: Q01DX005 (iv), vehicle: saline) 166 % of control. Further, the T/C reads like this: (dose: 150.0 mg/kg/injection, schedule: Q01DX005 (ip), vehicle: saline) 190 % of control; (dose: 200.0 mg/kg/injection, schedule: Q01DX001 (ip), vehicle: saline) 157 % of control and 161 % of control; (dose: 300.0 mg/kg/injection, schedule: Q01DX001 (ip), vehicle: saline) 185 % of control; (dose: 300.0 mg/kg/injection, schedule: Q01DX001 (iv), vehicle: saline) 166 % of control.

Consider `O=[N+]([O-])O.[Ga]`, for which the T/C (dose: 4.0 mg/kg/injection, schedule: Q01DX009 (ip), vehicle: saline) is 105 % of control; the T/C (dose: 4.0 mg/kg/injection, schedule: Q01DX009 (ip), vehicle: water) was 99 % of control; the T/C (dose: 8.0 mg/kg/injection, schedule: Q01DX009 (ip), vehicle: saline) is 98 % of control; the T/C (dose: 8.0 mg/kg/injection, schedule: Q01DX009 (ip), vehicle: water) was 95 % of control; the T/C (dose: 16.0 mg/kg/injection, schedule: Q01DX009 (ip), vehicle: saline) is 101 % of control; the T/C (dose: 16.0 mg/kg/injection, schedule: Q01DX009 (ip), vehicle: water) was 100 % of control. Further, the T/C under setting [7] is 101 % of control; the T/C (dose: 32.0 mg/kg/injection, schedule: Q01DX009 (ip), vehicle: saline) was 95 % of control; the T/C (dose: 32.0 mg/kg/injection, schedule: Q01DX009 (ip), vehicle: water) is 97 % of control; the T/C under setting [12] was 100 % of control; the T/C (dose: 64.0 mg/kg/injection, schedule: Q01DX009 (ip), vehicle: saline) was 91 % of control; the T/C (dose: 64.0 mg/kg/injection, schedule: Q01DX009 (ip), vehicle: water) was 96 % of control.

With `NC1=NCN(C2OC(CO)C(O)C2O)C(=O)N1` (configuration not stated), the T/C reads like this: under setting [12], 108 % of control; (dose: 100.0 mg/kg/injection, schedule: Q01DX009 (ip), vehicle: saline) 105 % of control.

As to `OCCO`, the T/C was 97 % of control (dose: 0.25 % in 0.5 ml injection vol, schedule: Q01DX009 (ip), vehicle: water) and 96 % of control (dose: 0.5 % in 0.5 ml injection vol, schedule: Q01DX009 (ip), vehicle: water).

For `CC(=O)NO`, the T/C runs as follows: under setting [8], 89 % of control; under setting [9], 102 % of control; under setting [10], 100 % of control; under setting [11], 112 % of control.

With `NC(CCC(=O)NC(CS)C(=O)NCC(=O)O)C(=O)O` (configuration not stated), the T/C by setting is: under setting [6], 94 % of control; under setting [7], 113 % of control and 86 % of control and 101 % of control; (dose: 400.0 mg/kg/injection, schedule: Q01DX009 (ip), vehicle: saline) 91 % of control and 104 % of control and 107 % of control.
